Patent US4230705A, “6-Phenyl-1,2,4-triazolo[4,3-b]pyridazines and their uses in treating anxiety” (American Cyanamid Company, priority 1976, dated 1980)

Assays:
[1] = system: Clonic Seizures Caused By Pentylenetetrazole; experiment: Protection against clonic seizures caused by pentylenetetrazole in rats; format: in vivo; conditions: Rattus norvegicus; oral, 2% starch vehicle; pentylenetetrazole 21 to 23 mg./kg. intravenously at estimated time of peak effect; protection of 50% of rats; read-out: Medium Effective Oral Dose mg./kg. ED50 (converted)
Protocol: The anti-anxiety properties of the novel compounds of the present invention have been established in a test which indicates anxiolytic activity by the measure of protection from convulsions resulting from the administration of pentylenetetrazole. Graded dose levels of the compounds of this invention were administered orally, in a 2% starch vehicle, to groups of at least 5 rats. At the estimated time of peak effect, the rats were treated intravenously with pentylenetetrazole at a dose of 21 to 23 mg./kg. of body weight. This dose is estimated to cause clonic seizures in 99% of unprotected rats. The effective dose (ED50) of the test compound for protection of 50% of the animals is calculated by the method of D. H. Finney in "Statistical Methods in Biological Assay", Second Edition, Hafner Publishing Co., New York, 1964, pp. 456-457. Representative results are given in Table I which follows in comparison with chlordiazepoxide or meprobamate, which were tested in exactly the same manner. It has been reported [R. T. Hill and D. H. Tedeschi, "Animal Testing and Screening Procedures in Evaluating Psychotropic Drugs" in "An Introduction to Psychopharmacology", Eds. R. R. Rech and K. E. Moore, Raven Press, New York, pp. 237-288 (1971)] that there is a high degree of correlation between antagonism of pentylenetetrazole seizures in rats and anti-anxiety effects in higher warm-blooded animals.

[2] = system: conflict situation in rats; experiment: Non-conditioned passive avoidance (conflict) procedure in rats; format: in vivo, Sprague-Dawley rats; conditions: Rattus norvegicus; oral, 2% starch vehicle; 9 or more shocks in 5 minute test period; rats deprived of water 48 hours and food 24 hours; read-out: Median Effective Dose (ED50 mg./kg.)
Protocol: Another test which has been used to assess anti-anxiety effects is a non-conditioned passive avoidance procedure described by J. R. Vogel, B. Beer and D. E. Clody, "A Simple and Reliable Conflict Procedure for Testing Anti-Anxiety Agents", Psychopharmacologia, Vol. 21, pp. 1-7 (1971). A conflict situation is induced in rats by a modification of this method. To groups of six naive Sprague-Dawley rats (200-220 grams), previously deprived of water for forty-eight hours and food for 24 hours, are administered graded oral doses of test compound suspended in 2% starch vehicle also containing 2 drops of polyethylene glycol and polysorbate 80, or vehicle alone (controls). At the time of peak effect each rat is placed in a plexiglass box fitted with a drinkometer circuit connected between the stainless steel grid floor and a stainless steel drinking tube inserted in a hole in one of the walls of the box. […] The number of shocks received by the rat during a 5 minute test period is recorded. […]

Structure (SMILES): CCCC(C)(COC(N)=O)COC(N)=O [Meprobamate]
- ED50 [1]: 22 mg/kg

Structure (SMILES): c1ccc(-c2ccc3nncn3n2)cc1 [6-phenyl-1,2,4-triazolo[4,3-b]pyridazine]
- ED50 [1]: 9.5 mg/kg

Structure (SMILES): Cc1nnc2ccc(-c3ccccc3)nn12 [3-methyl-6-phenyl-1,2,4-triazolo[4,3-b]pyridazine]
- ED50 [2]: 100 mg/kg
- ED50 [1]: 3 mg/kg

Structure (SMILES): CNC1=Nc2ccc(Cl)cc2C(c2ccccc2)=[N+]([O-])C1 [Chlordiazepoxide]
- ED50 [2]: 9.6 mg/kg
- ED50 [1]: 2.5 mg/kg
